Measured values: article PMC8991007, “Benzylic Dehydroxylation of Echinocandin Antifungal Drugs Restores Efficacy against Resistance Conferred by Mutated Glucan Synthase” (Journal of the American Chemical Society, 2022)
Converted amounts (≈) assume the structure as drawn. *1 amine or outer side, *2 acyl side, *3 side chain or, on linkers, in order; H or OH if unused. Where a SMILES comes first, the peptide text is derived from it. Bridges are numbered along the chain shown (N, C = ends). [ ]: non-standard residue; d: D form. The star is where a group is joined. hTyr(3S-OH,4S-OH,3'-OSO3H) = N[C@H](C(=O)O)[C@H](O)[C@@H](O)c1ccc(O)c(OS(=O)(=O)O)c1; Orn(4R-OH,5R-OH) = O=C([C@H](C[C@@H](O)[C@@H](O)N[*:3])N[*:1])[*:2]; Pro(3S-OH,4S-Me) = C[C@H]1CN[C@H](C(=O)O)[C@H]1O; X1 = CCCCCOc1ccc(-c2cc(-c3ccc(C(=O)*)cc3)no2)cc1; Gln(3R-OH) = NC(=O)C[C@@H](O)[C@H](N)C(=O)O; Hyp = O=C(O)[C@@H]1C[C@@H](O)CN1

Assays:
C. albicans = assay: Minimum inhibitory concentration broth double-dilution assay; type: cell-based, Candida albicans; conditions: 24 h, 30 °C
Procedure: (§1) The antifungal activities of compounds 1 and 2 were evaluated against a panel of 50 strains of C. albicans and C. glabrata (Table S4), including echinocandin-resistant strains that were constructed by introducing mutations within and near the defined hotspots in the FKS1 and/or FKS2 genes.[27] To evaluate antifungal activity, we determined MIC values. The MIC was defined as the lowest drug concentration that led to turbidity (measured at 600 nm) of less than or equal to 35% of that of the untreated culture. As controls, we tested CSF, MCF, ANF, and RZF.
(§2) All of the tested compounds were dissolved in anhydrous DMSO to a concentration of 5 mg/mL. Candida strains were streaked from a glycerol stock onto YPAD agar plates and grown for 24 h at 30 °C. Colonies were suspended in 1 mL of PBS and diluted to an O.D. of 0.01 at 600 nm with YPAD broth and added into flat-bottom 96-well microplates (Corning) containing a gradient of twofold dilutions per tested compound with concentrations ranging from 64 to 0.0009 μg/mL. Control wells with no drug and blank wells without yeast cells containing YPAD only were also prepared. […] Each concentration was tested in triplicate, and results were confirmed by at least two independent sets of experiments.

C. glabrata = assay: as above; type: cell-based, Candida glabrata; conditions: 24 h, 30 °C
Procedure: as §1, §2

[1] = #2 C. albicans DPL1015 (DP-A15)
[2] = #3 C. albicans DPL1016 (DP-A15-10)

Row | SMILES | MIC (C. albicans; #1 C. albicans Sc5314) [µg/mL] | MIC (C. albicans; [1]) [µg/mL] | MIC (C. albicans; [2]) [µg/mL] | MIC (C. albicans; #4 C. albicans T-2068 (DP-C42)) [µg/mL] | MIC (C. albicans; #5 C. albicans T-2069 (DP-85)) [µg/mL] | MIC (C. albicans; #6 C. albicans (DP-89)) [µg/mL] | MIC (C. albicans; #7 C. albicans T-2076 (DP-194)) [µg/mL] | MIC (C. albicans; #8 C. albicans T-2077 (DP-205)) [µg/mL] | MIC (C. glabrata; #9 C. glabrata EF1620) [µg/mL] | MIC (C. glabrata; #10 C. glabrata TGL00277) [µg/mL] | MIC (C. glabrata; #11 C. glabrata TGL00275) [µg/mL] | MIC (C. glabrata; #12 C. glabrata CST78) [µg/mL] | MIC (C. glabrata; #13 C. glabrata TGL00265) [µg/mL] | MIC (C. glabrata; #14 C. glabrata TGL00264) [µg/mL] | MIC (C. glabrata; #15 C. glabrata TGL00263) [µg/mL] | MIC (C. glabrata; #16 C. glabrata TGL00065) [µg/mL] | MIC (C. glabrata; #17 C. glabrata CST34) [µg/mL] | MIC (C. glabrata; #18 C. glabrata TGL00258) [µg/mL] | MIC (C. glabrata; #19 C. glabrata TGL00256) [µg/mL] | MIC (C. glabrata; #20 C. glabrata TGL00107) [µg/mL] | also measured
1 | CC[C@H](C)C[C@H](C)CCCCCCCCC(=O)N[C@H]1C[C@@H](O)[C@@H](NCCN)NC(=O)[C@@H]2[C@@H](O)CCN2C(=O)[C@H]([C@H](O)CCN)NC(=O)[C@H]([C@H](O)[C@@H](O)c2ccc(O)cc2)NC(=O)[C@@H]2C[C@@H](O)CN2C(=O)[C@H]([C@@H](C)O)NC1=O [CSF, caspofungin] | 0.015 (≈ 0.0137 µM) | 1 (≈ 0.915 µM) | > 64 | 32 (≈ 29.3 µM) | 16 (≈ 14.6 µM) | > 64 | 1 (≈ 0.915 µM) | 16 (≈ 14.6 µM) | 0.031 (≈ 0.0284 µM) | > 64 | 32 (≈ 29.3 µM) | 0.015 (≈ 0.0137 µM) | > 64 | 4 (≈ 3.66 µM) | 64 (≈ 58.5 µM) | > 64 | 0.015 (≈ 0.0137 µM) | > 64 | 16 (≈ 14.6 µM) | > 64 | MIC (C. glabrata; #21 C. glabrata TGL00056): > 64 µg/mL; MIC (C. glabrata; #22 C. glabrata M12): 0.015 µg/mL (≈ 0.0137 µM); MIC (C. glabrata; #23 C. glabrata TGL00270): > 64 µg/mL; MIC (C. glabrata; #24 C. glabrata TGL00269): 16 µg/mL (≈ 14.6 µM); MIC (C. glabrata; #25 C. glabrata TGL00268): > 64 µg/mL; MIC (C. glabrata; #26 C. glabrata TGL00268): > 64 µg/mL; MIC (C. glabrata; #27 C. glabrata EB0911): 0.031 µg/mL (≈ 0.0284 µM); MIC (C. glabrata; #28 C. glabrata TGL00261): > 64 µg/mL; MIC (C. glabrata; #29 C. glabrata TGL00109): 64 µg/mL (≈ 58.5 µM); MIC (C. glabrata; #30 C. glabrata TGL00259): > 64 µg/mL
2 | CCCCCOc1ccc(-c2cc(-c3ccc(C(=O)N[C@H]4C[C@@H](O)[C@@H](O)NC(=O)[C@@H]5[C@@H](O)[C@@H](C)CN5C(=O)[C@H]([C@H](O)CC(N)=O)NC(=O)[C@H]([C@H](O)[C@@H](O)c5ccc(O)c(OS(=O)(=O)O)c5)NC(=O)[C@@H]5C[C@@H](O)CN5C(=O)[C@H]([C@@H](C)O)NC4=O)cc3)no2)cc1 [MCF, micafungin] (X1-[Orn(4R-OH,5R-OH)]T[Hyp][hTyr(3S-OH,4S-OH,3'-OSO3H)][Gln(3R-OH)][Pro(3S-OH,4S-Me)]; lactam 1-C) | 0.031 (≈ 0.0244 µM) | 1 (≈ 0.787 µM) | 16 (≈ 12.6 µM) | 4 (≈ 3.15 µM) | 2 (≈ 1.57 µM) | 4 (≈ 3.15 µM) | 1 (≈ 0.787 µM) | 2 (≈ 1.57 µM) | 0.015 (≈ 0.0118 µM) | 8 (≈ 6.3 µM) | 2 (≈ 1.57 µM) | 0.004 (≈ 0.00315 µM) | 1 (≈ 0.787 µM) | > 64 | 0.125 (≈ 0.0984 µM) | 32 (≈ 25.2 µM) | 0.002 (≈ 0.00157 µM) | > 64 | 0.125 (≈ 0.0984 µM) | > 64 | MIC (C. glabrata; #21 C. glabrata TGL00056): > 64 µg/mL; MIC (C. glabrata; #22 C. glabrata M12): 0.002 µg/mL (≈ 0.00157 µM); MIC (C. glabrata; #23 C. glabrata TGL00270): 16 µg/mL (≈ 12.6 µM); MIC (C. glabrata; #24 C. glabrata TGL00269): 0.125 µg/mL (≈ 0.0984 µM); MIC (C. glabrata; #25 C. glabrata TGL00268): > 64 µg/mL; MIC (C. glabrata; #26 C. glabrata TGL00268): > 64 µg/mL; MIC (C. glabrata; #27 C. glabrata EB0911): 0.008 µg/mL (≈ 0.0063 µM); MIC (C. glabrata; #28 C. glabrata TGL00261): 4 µg/mL (≈ 3.15 µM); MIC (C. glabrata; #29 C. glabrata TGL00109): > 64 µg/mL; MIC (C. glabrata; #30 C. glabrata TGL00259): 32 µg/mL (≈ 25.2 µM)
